Consider 3 compounds from patent US20130018062A1, “Pain therapy with metabolism blocked antifolates” (priority 2011, published 2013).

Series [1] relates to patients with Rheumatoid Arthritis. The following applies: compared with methotrexate; cited from earlier work.
Series [2] deals with Allergic Rabbits. Conditions: allergen induced; cited from earlier work.
For series [3], the system named is Human HCT-8 Colon Xenograft. The series can be described thus: Antitumor activity in nude mice bearing human HCT-8 colon xenograft (Example-4). Type of series: in vivo. The following applies: i.v. push daily × 5 at maximum tolerated dose (M-Trex 4.0, MTX 1.0 mg/kg/day). An excerpt: There are three general accepted methods for the evaluation of Pain in patients suffering from a number of diseases. They are Visual Analog Scale (VAS); Numeric rating Scale (NRS) and Verbal Categorical Rating Scale […]. Of these three assessment methods VAS is considered to be most reliable in a majority of cases to evaluate and quantify the magnitude of the perception of Pain. Clinical trials conducted by Castaneda and Nair used VAS to assess pain intensity in RA patients receiving 10-DAAM in one trial [G. Alarcon, O. Castaneda, W. J. Koopman, C. L. Krumdieck, and M. G. Nair. U.S. Pat. No. 5,030,634 (1991)] and M-Trex (CH-1504) in another trial conducted separately. Almost all cases of cancer Pain is due to tissue inflammation, tissue compression and tissue damage secondary to rapid proliferation of cells. Therefore any therapeutic intervention that shrinks proliferating tissues can bring about significant reduction in Pain. Shown below is the efficacy of M-Trex in shrinking human colon cancer transplanted and growing in nude mice.
A general note: In xenograft studies the graft and the host belong to different species.

A short description of series [4]: Toxicity (maximum tolerated dose, weight loss) in nude mice bearing HCT-8 xenograft. Conditions: i.v. push daily × 5 in nude mice. The class given is in vivo.
In series [5] the test system is human tumor cell lines. Conditions: all 49 human tumor cell lines evaluated at NCI-DTP program; cited from earlier work.
The subject of series [6] is MOLT-4 (Leukemia). The series can be described thus: Growth inhibition of human tumor cells in culture (NCI). Type of series: cell-based. Conditions: logarithmic value. An excerpt: (§1) The preceding data collected at the National Cancer Institute summarize the ability of M-Trex to inhibit 50% of the growth of selected tumor cells in culture. The values are expressed as Log10 GI50 values all of which are lower than 10^−8M. In the same table a comparison is made of the respective values of TGI (Total Growth Inhibition) for M-Trex and MTX. […] In addition, the Log10 GI50 values of M-Trex was lower than −8.00 for the following cell lines: NSCLC, A549/ATCC and NCI H23; Colon Cancer, HCT 116, HCT 29 and SW 620; CNS Cancer, SF 268; Melanoma M 14 and UACC 62; Ovarian Cancer, OVCAR-8; Renal Cancer, ACHN, CAKI-1, SN 12C, and UO 31; Prostate Cancer, PC 3 and Breast cancer, MDA-MB-435 and MDA-N. The MG_MID value of MTX for all 49 human tumor cell lines evaluated at NCI-DTP program was −7.05. […] The tumors and sarcomas are solid while leukemia and lymphoma are liquid tumors.

The test system of series [7] is K562 (Leukemia). The description is as above. The following applies: logarithmic value. The class given is cell-based.
Description: as §1

Series [8] concerns RPMI 8226 (Leukemia). Described as above. The class given is cell-based. Conditions: logarithmic value.
Description: as §1

Series [9] has as its system SF 539 (CNS Cancer). The description is as above. The class given is cell-based. Conditions: logarithmic value.
Description: as §1

The test system of series [10] is CCRF-CEM (Leukemia). Described as above. The class given is cell-based. Conditions: logarithmic value.
Description: as §1

The test system of series [11] is SR (Leukemia). The description is as above. Type of series: cell-based. The following applies: logarithmic value.
Description: as §1

As for `Nc1nc(N)c2nc(CCc3ccc(C(=O)N[C@@H](CCC(=O)O)C(=O)O)cc3)cnc2n1` [10-DAAM, 10-Deazaaminopterin], the “Pain reduction (in words)” value in series [1] is given as “very effective in reducing Pain”.
As to `Cn1c(=O)c2[nH]cnc2n(C)c1=O` [Theophylline], in series [2], the “Asthmatic Response Early” value is on record as 45, the “Asthmatic Response Late” value is reported as 49 and the “BHR (Bronchial Hyper-Responsiveness)” value is given as 39.
Take `CN(Cc1cnc2nc(N)nc(N)c2n1)c1ccc(C(=O)N[C@@H](CCC(=O)O)C(=O)O)cc1` [MTX, methotrexate, reference compound]: the “MTGI, Maximum Tumor Growth Inhibition (% of control)” value in series [3] (nude mice, HCT-8 xenograft) was determined as 30.0 ± 9.0%. Moreover, the “Tumor doubling time, treated/control (%)” value in series [3] (nude mice, HCT-8 xenograft) is 176.92%. Further, the “TD, Tumor Doubling Time” value in series [3] (control 2.6 ± 0.8 days) amounted to 4.6 ± 0.6 days. For the same compound, the “Asthmatic Response Early” value in series [2] is reported as 29. The “Asthmatic Response Late” value in series [2] is given as 37. For the same compound, in [2], the “BHR (Bronchial Hyper-Responsiveness)” value was 32. Also, the “Maximum Tolerated dose” value in [4] is reported as “MTX (1.0 mg/kg/day)^33”. Also, the MG_MID value in series [5] is −7.05. Further, the “TGI (Total Growth Inhibition)” value in series [6] is listed as −3.55; in [7], −3.30; in [8] it was −3.66; in [9] it was −3.66; in series [10], −3.77; in [11], −3.50.
